From paper PMC13239830, “Antimicrobial Peptides Induce Cell Death in Marginal Zone Lymphoma Models Resistant to Targeted Therapies” (EJHaem, 2026) come the findings set out here.

Each structure is given as a SMILES string. Peptide text beside a SMILES is read from it. Some results are limits rather than exact numbers.

One may read the IC50 as the point on the concentration scale where inhibition reaches its midpoint. Low readings indicate greater potency, high ones weaker potency.

For data set [1], the system named is VL51-Copa (copanlisib-resistant VL51) cells. The class given is cell-based, human. Particulars: 72 h. The procedure: (§1) The established human cell lines VL51 1 and Karpas1718 2, derived from bona fide marginal zone lymphomas (MZL), and their derivatives with secondary resistance obtained by long exposure to the BTK inhibitor ibrutinib, the PI3Kδ inhibitor idelalisib or the PI3Kα/δ inhibitor copanlisib (three from VL51 3-5, and one from Karpas1718 6). Cell lines were cultured in RPMI supplemented with fetal bovine serum (FBS) (10%) and penicillin-streptomycin-neomycin (≈5,000 units penicillin, 5 mg streptomycin, and 10 mg neomycin/mL; Sigma-Aldrich, Darmstadt, Germany). Cell line identities were confirmed by periodic short tandem repeat (STR) DNA fingerprinting using the Promega GenePrint 10 System kit (B9510).
(§2) Cells were regularly tested for mycoplasma negativity using the MycoAlert Mycoplasma Detection Kit (Lonza, Visp, Switzerland).
(§3) […] Purity (>95%) was confirmed by reverse-phase high-performance liquid chromatography (RP-HPLC) while molecular masses were verified by mass spectrometry. Peptides were dissolved in nuclease-free water, and 2 mM stock solutions were prepared 7.
(§4) Antarctic peptides were synthesized by Caslo Aps (Caslo Aps Kongens, Lyngby, Denmark) with 98% purity. Purity was confirmed by reverse-phase high-performance liquid chromatography (RP-HPLC), and molecular masses were verified by mass spectrometry. As previously reported, the peptide stock concentration in nuclease-free water (1 mM) was determined spectrophotometrically.
(§5) In vitro cytotoxic activity
(§6) Cells were manually seeded into 96-well plates (VL51, 10’000 cells per well; SSK41, 20’000 cells per well; Karpas1718, 30’000 cells per well). Treatments were applied manually, and cell viability was assessed after 72 hours using 3-(4,5-dimethylthiazol-2-yl)-2,5-diphenyltetrazolium bromide (MTT).
(§7) After a 4-hour incubation, the reaction was terminated by adding sodium dodecyl sulfate (SDS) lysis buffer. Plates were analyzed with Cytation3, and IC50s were calculated using the 4-parameter logistic model (R environment or GraphPad Prism, Version 10.6.1). Antarctic peptides were tested at 40μM, with 1:2 dilutions down to 625 nM. Temporins were tested at 100μM, with 1:5 dilutions down to 32 nM. […]

The test system of data set [2] is VL51-Ibru (ibrutinib-resistant VL51) cells. In kind it is cell-based, human. As to conditions: 72 h. The procedure:
as §1, §2, §3, §4, §5, §6, §7

Data set [3] concerns Karpas1718 cells. In kind it is cell-based, human. As to conditions: 72 h. The procedure:
as §1, §2, §3, §4, §5, §6, §7

The test system of data set [4] is Karpas1718-Idel (idelalisib-resistant Karpas1718) cells. In kind it is cell-based, human. As to conditions: 72 h. The procedure:
as §1, §2, §3, §4, §5, §6, §7

Data set [5] deals with VL51-Idel (idelalisib-resistant VL51) cells. The class given is cell-based, human. Particulars: 72 h. Here is the method:
as §1, §2, §3, §4, §5, §6, §7

In data set [6] the test system is VL51 cells. The class given is cell-based, human. Particulars: 72 h. Here is the method:
as §1, §2, §3, §4, §5, §6, §7

Data set [7] has as its system Karpas1718-Idel cells. The experiment in a line: Cell death and membrane integrity by Annexin V/PI staining. The class given is cell-based, human. Particulars: 10 µM, 1 and 2 h, flow cytometry. Here is the method:
as §1, §2, §3
Antarctic peptides were synthesized by Caslo Aps (Caslo Aps Kongens, Lyngby, Denmark) with 98% purity. Purity was confirmed by reverse-phase high-performance liquid chromatography (RP-HPLC), and molecular masses were verified by mass spectrometry. As previously reported, the peptide stock concentration in nuclease-free water (1 mM) was determined spectrophotometrically. […]
Subsequently, cells were stained with Annexin V and propidium iodide (PI) (Annexin V FITC Apoptosis Detection Kit, BMS500FI-300, Life Technologies) following the manufacturer ’s instructions and analyzed through flow cytometry and immunofluorescence (Leica Thunder microscope).
PBMCs. Flow cytometric (A) and immunofluorescence (B) analyses of Annexin V/PI staining in Karpas1718-Idel cells and PBMCs after 1- and 2-hour treatments with W-trematocine or Temporin L at 10 µM. (B) Representative images (100x magnification) show brightfield, Annexin V (green), and PI […]

Data set [8] has as its system PBMCs. The description is as above. In kind it is cell-based. Particulars: 10 µM; 1 and 2 h; PBMCs treated in parallel; flow cytometry; listed as temporin L. Here is the method: as §1
Cells were regularly tested for mycoplasma negativity using the MycoAlert Mycoplasma Detection Kit (Lonza, Visp, Switzerland). […]
Antarctic peptides were synthesized by Caslo Aps (Caslo Aps Kongens, Lyngby, Denmark) with 98% purity. […] As previously reported, the peptide stock concentration in nuclease-free water (1 mM) was determined spectrophotometrically. […]
Subsequently, cells were stained with Annexin V and propidium iodide (PI) (Annexin V FITC Apoptosis Detection Kit, BMS500FI-300, Life Technologies) following the manufacturer ’s instructions and analyzed through flow cytometry and immunofluorescence (Leica Thunder microscope). […]
A general note: A flow cytometer gives signals particle by particle.

Data set [9] relates to MZL cell lines (VL51, Karpas1718) and resistant derivatives. In words: In vitro cytotoxic activity (MTT, 72 h), summary over the MZL cell line panel. The class given is cell-based. Here is the method:
For in vitro testing, we used two human MZL cell lines, VL51 and Karpas1718, along with derivative clones rendered resistant by prolonged exposure to the BTK inhibitor ibrutinib, the PI3Kδ inhibitor idelalisib, or the PI3Kα/δ inhibitor copanlisib (Table S1; methods described in the Supporting Information). […] The calculated IC50 values ranged from 5 to 10 µM (Table S2). […] These findings were validated by treating lymphoma cells and peripheral blood mononuclear cells (PBMCs) in parallel. […] While acquired resistance to BTK or PI3K inhibitors often involves secondary mutations in the drug‐binding site, activation of alternative kinases, or evasion of apoptosis through upregulation of anti‐apoptotic proteins, these adaptations are unlikely to protect tumor cells from AMP‐mediated membrane disruption. […]
as §1, §2, §3, §4, §5, §6, §7

With `CC[C@H](C)[C@H](NC(=O)CNC(=O)[C@H](CO)NC(=O)[C@H](CC(C)C)NC(=O)[C@@H](NC(=O)[C@H](CCCNC(=N)N)NC(=O)CNC(=O)[C@@H](NC(=O)[C@H](CC(C)C)NC(=O)[C@@H]1CCCN1C(=O)[C@H](CC(C)C)NC(=O)[C@@H](N)Cc1ccccc1)[C@@H](C)CC)C(C)C)C(=O)N[C@@H](CC(C)C)C(N)=O` [Temporin A] (H-FLPLIGRVLSGIL-NH2; N-terminus and C-terminus assumed), the half-inhibitory concentration (IC50) in data set [1] was 48.8 µM; in data set [2] it was 48.5 µM; in data set [3] it was 47.4 µM; in [4], 49 µM; in [5], 27.5 µM; in data set [6] it was 32 µM.

Take `CC[C@H](C)[C@H](NC(=O)[C@@H]1CCCN1C(=O)[C@H](CC(C)C)NC(=O)[C@@H](N)CC(C)C)C(=O)N[C@H](C(=O)NCC(=O)N[C@@H](CC(N)=O)C(=O)N[C@@H](CC(C)C)C(=O)N[C@@H](CC(C)C)C(=O)N[C@@H](CCCCN)C(=O)N[C@@H](CO)C(=O)N[C@@H](CC(C)C)C(=O)N[C@@H](CC(C)C)C(N)=O)C(C)C` [Temporin B] (H-LLPIVGNLLKSLL-NH2; N-terminus and C-terminus assumed): the IC50 in [1] amounted to 47.7 µM; in [2] it was 45.4 µM; in [3] it was 44.1 µM; in [4], 71.4 µM; in data set [5] it was 31.6 µM; in data set [6], 38.2 µM.

Turning to `CC[C@H](C)[C@H](NC(=O)[C@H](CCCNC(=N)N)NC(=O)CNC(=O)[C@H](CC(C)C)NC(=O)[C@H](Cc1ccccc1)NC(=O)[C@H](CCCCN)NC(=O)[C@H](CO)NC(=O)[C@H](Cc1ccccc1)NC(=O)[C@H](Cc1c[nH]c2ccccc12)NC(=O)[C@H](CCC(N)=O)NC(=O)[C@@H](NC(=O)[C@@H](N)Cc1ccccc1)C(C)C)C(=O)N[C@@H](CC(C)C)C(N)=O` [Temporin L] (H-FVQWFSKFLGRIL-NH2), the IC50 was 7.4 µM in [1]; 9.6 µM in [2]; 7.5 µM in data set [3]; 10.1 µM in data set [4]; 6.4 µM in data set [5]; 8.9 µM in data set [6]. The results for the “anti-lymphoma activity (Annexin V/PI staining)” value in data set [7] and in data set [7] (listed as temporin L) were “active in lymphoma cells” and “potent anti‐lymphoma activity”, respectively. In addition, the “sensitivity of PBMCs (Annexin V/PI staining)” value in [8] was “markedly less sensitive”. Besides, the “activity in resistant models” value in [9] (derivatives resistant to BTK, PI3Kδ or PI3Kα/δ inhibitors) is reported as “maintaining full activity in all resistant models”.

As for `CC[C@H](C)[C@H](NC(=O)CNC(=O)[C@H](CC(N)=O)NC(=O)[C@H](CC(C)C)NC(=O)[C@@H](NC(=O)[C@H](CCCNC(=N)N)NC(=O)CNC(=O)[C@@H](NC(=O)[C@@H](NC(=O)[C@@H]1CCCN1C(=O)[C@H](Cc1ccccc1)NC(=O)[C@@H](N)Cc1ccccc1)C(C)C)[C@@H](C)CC)[C@@H](C)CC)C(=O)N[C@@H](CC(C)C)C(N)=O` [Temporin G] (H-FFPVIGRILNGIL-NH2; N-terminus assumed), the IC50 was 26.5 µM in data set [1]; 38.1 µM in data set [2]; 31 µM in [3]; 101 µM in data set [4]; 28.2 µM in [5]; 35.2 µM in [6].

As to `CSCC[C@H](NC(=O)CNC(=O)[C@H](Cc1c[nH]cn1)NC(=O)[C@@H](NC(=O)[C@H](CCCNC(=N)N)NC(=O)[C@H](CCC(=O)O)NC(=O)[C@H](C)NC(=O)[C@H](C)NC(=O)[C@@H](NC(=O)[C@H](CC(C)C)NC(=O)[C@H](C)NC(=O)[C@H](Cc1c[nH]cn1)NC(=O)CNC(=O)[C@@H](NC(=O)[C@H](Cc1c[nH]cn1)NC(=O)[C@H](CCCCN)NC(=O)[C@H](Cc1c[nH]c2ccccc12)NC(=O)[C@H](Cc1ccccc1)NC(=O)[C@H](CCC(=O)O)NC(=O)[C@@H](N)Cc1ccccc1)C(C)C)[C@@H](C)O)C(C)C)C(=O)N[C@@H](CC(C)C)C(=O)N[C@H](C(=O)NCC(=O)O)[C@@H](C)O` [Chionodracine] (H-FEFWKHVGHALTAAERVHGMLTG-OH; N-terminus and C-terminus assumed), the IC50 in [1], in [2], in [3], in data set [4], in [5] and in data set [6] was over 40 µM throughout. In [9] (MZL cell lines VL51, Karpas1718 and resistant derivatives), the “anti-proliferative activity (in words)” value was “inactive”. Further, the cytotoxic effect result in data set [9] (concentrations up to 50 µM, MZL cell lines) is listed as “no measurable cytotoxic effect”.

Take `CC[C@H](C)[C@H](NC(=O)CNC(=O)[C@H](CCCNC(=N)N)NC(=O)[C@H](Cc1ccc(O)cc1)NC(=O)[C@H](CC(C)C)NC(=O)[C@H](CCC(N)=O)NC(=O)[C@H](CO)NC(=O)[C@H](Cc1ccccc1)NC(=O)[C@@H](N)Cc1ccccc1)C(=O)N[C@H](C(=O)N[C@@H](CO)C(=O)N[C@H](C(=O)NCC(=O)N[C@@H](CCCCN)C(=O)N[C@@H](Cc1c[nH]cn1)C(=O)N[C@H](C(=O)N[C@@H](Cc1c[nH]cn1)C(=O)NCC(=O)N[C@@H](CC(C)C)C(=O)N[C@@H](CC(C)C)C(=O)N[C@@H](CO)C(=O)NCC(=O)O)[C@@H](C)CC)C(C)C)C(C)C` [Trematocine-1] (H-FFSQLYRGIVSVGKHIHGLLSG-OH; N-terminus and C-terminus assumed): the IC50 in [1], in data set [2], in data set [3], in [4], in [5] and in data set [6] was over 40 µM throughout. The same compound came in with a concentration for half-maximal inhibition (IC50) in [9] (72 h) of 25 to 50 µM.
